Test results: US11147272B2, “Pyridone compounds and agricultural and horticultural fungicides comprising the same as active ingredients” (MITSUI CHEMICALS AGRO, INC., priority 2017, dated 2021)

Key:
Magnaporthe grisea = experiment: whole plant or invertebrate; format: in vivo; settings: 250 ppm drug solution sprayed on test plant
Alternaia brassicicola = experiment: Test Example C: Alternaria sooty spot on cabbage; format: in vivo; settings: 250 ppm drug solution sprayed on test plant
Source text: Seeds of a test plant (cabbage variety: Shikidori) were planted and cultivated until the cotyledons extended.
<Control Value> Control value=100{1−(n/3)}

Puccinia recondita = experiment: Test Example E: Brown rust on wheat; format: in vivo; settings: 250 ppm drug solution sprayed on test plant
Phytophthora infestans = experiment: whole plant or invertebrate; format: in vivo; settings: 250 ppm drug solution sprayed on test plant
Botrytis cinerea = experiment: Test Example B: Gray mold on tomato; settings: 250 ppm drug solution sprayed on test plant
Plasmopara viticola = experiment: Test Example G: Downy mildew on vine; settings: 250 ppm drug solution sprayed (2.5 ml/pot), grape Neomuscat, 7 to 10 days after inoculation
[1] = tested on: Colletotrichum orbiculare; experiment: Test Example H: Anthracnose on cucumber; settings: 250 ppm drug solution sprayed (2.5 ml/pot), cucumber Sagami Hanjiro, 6 to 10 days after inoculation
[2] = tested on: Blumeria graminis f. sp. hordei; experiment: Test Example D: Powdery mildew on barley; settings: 250 ppm drug solution sprayed on test plant

CCC1=C(c2c(F)cc(F)cc2F)N(CC)C(=O)CC1 [compound 373]
Test A control value (Magnaporthe grisea): L (50% or less control value)
Test C control value (Alternaia brassicicola): H (more than 50% control value)
Test E control value (Puccinia recondita): L (50% or less control value)
Test F control value (Phytophthora infestans): L (50% or less control value)
Test B control value (Botrytis cinerea): L (50% or less control value)
Test G control value (Plasmopara viticola): L (50% or less control value)
Test H control value [1]: H (more than 50% control value)
Test D control value [2]: L (50% or less control value)

CCc1cc(Cl)c(=O)n(C)c1-c1ccc(OC)cc1C [compound 374]
Test A control value (Magnaporthe grisea): L (50% or less control value)
Test C control value (Alternaia brassicicola): H (more than 50% control value)
Test E control value (Puccinia recondita): H (more than 50% control value)
Test F control value (Phytophthora infestans): L (50% or less control value)
Test B control value (Botrytis cinerea): H (more than 50% control value)
Test G control value (Plasmopara viticola): L (50% or less control value)
Test H control value [1]: L (50% or less control value)
Test D control value [2]: H (more than 50% control value)

CCc1cc(Br)c(=O)n(C)c1-c1ccc(OC)cc1C [compound 375]
Test A control value (Magnaporthe grisea): L (50% or less control value)
Test C control value (Alternaia brassicicola): H (more than 50% control value)
Test E control value (Puccinia recondita): H (more than 50% control value)
Test F control value (Phytophthora infestans): H (more than 50% control value)
Test B control value (Botrytis cinerea): H (more than 50% control value)
Test G control value (Plasmopara viticola): H (more than 50% control value)
Test H control value [1]: L (50% or less control value)
Test D control value [2]: H (more than 50% control value)

CCCc1cc(Cl)c(=O)n(CC)c1-c1ccc(OC)cc1Br [compound 376]
Test A control value (Magnaporthe grisea): H (more than 50% control value)
Test C control value (Alternaia brassicicola): H (more than 50% control value)
Test E control value (Puccinia recondita): H (more than 50% control value)
Test F control value (Phytophthora infestans): H (more than 50% control value)
Test B control value (Botrytis cinerea): H (more than 50% control value)
Test G control value (Plasmopara viticola): H (more than 50% control value)
Test H control value [1]: H (more than 50% control value)
Test D control value [2]: H (more than 50% control value)

CCc1ccc(=O)n(CC)c1-c1c(F)cc(F)cc1F [compound 377]
Test A control value (Magnaporthe grisea): L (50% or less control value)
Test C control value (Alternaia brassicicola): L (50% or less control value)
Test E control value (Puccinia recondita): L (50% or less control value)
Test F control value (Phytophthora infestans): L (50% or less control value)
Test B control value (Botrytis cinerea): L (50% or less control value)
Test G control value (Plasmopara viticola): L (50% or less control value)
Test H control value [1]: H (more than 50% control value)
Test D control value [2]: H (more than 50% control value)

CCCc1cc(Cl)c(=O)n(CC)c1-c1c(F)cc(F)cc1F [compound 378]
Test A control value (Magnaporthe grisea): H (more than 50% control value)
Test C control value (Alternaia brassicicola): H (more than 50% control value)
Test E control value (Puccinia recondita): H (more than 50% control value)
Test F control value (Phytophthora infestans): L (50% or less control value)
Test B control value (Botrytis cinerea): H (more than 50% control value)
Test G control value (Plasmopara viticola): L (50% or less control value)
Test H control value [1]: H (more than 50% control value)
Test D control value [2]: H (more than 50% control value)

CCn1c(-c2c(F)cc(F)cc2F)c(C)cc(I)c1=O [compound 379]
Test A control value (Magnaporthe grisea): L (50% or less control value)
Test C control value (Alternaia brassicicola): H (more than 50% control value)
Test E control value (Puccinia recondita): H (more than 50% control value)
Test F control value (Phytophthora infestans): L (50% or less control value)
Test B control value (Botrytis cinerea): H (more than 50% control value)
Test G control value (Plasmopara viticola): L (50% or less control value)
Test H control value [1]: H (more than 50% control value)
Test D control value [2]: H (more than 50% control value)

CCn1c(-c2c(F)cc(OC)cc2F)c(C)cc(I)c1=O [compound 380]
Test A control value (Magnaporthe grisea): H (more than 50% control value)
Test C control value (Alternaia brassicicola): H (more than 50% control value)
Test E control value (Puccinia recondita): H (more than 50% control value)
Test F control value (Phytophthora infestans): H (more than 50% control value)
Test B control value (Botrytis cinerea): H (more than 50% control value)
Test G control value (Plasmopara viticola): L (50% or less control value)
Test H control value [1]: H (more than 50% control value)
Test D control value [2]: H (more than 50% control value)

CCn1c(-c2c(F)cc(F)cc2F)c(C(C)(O)C(C)C)cc(Br)c1=O (centres unmarked) [compound 381]
Test A control value (Magnaporthe grisea): H (more than 50% control value)
Test C control value (Alternaia brassicicola): H (more than 50% control value)
Test E control value (Puccinia recondita): H (more than 50% control value)
Test F control value (Phytophthora infestans): H (more than 50% control value)
Test B control value (Botrytis cinerea): H (more than 50% control value)
Test G control value (Plasmopara viticola): H (more than 50% control value)
Test H control value [1]: H (more than 50% control value)
Test D control value [2]: H (more than 50% control value)

CCCc1cc(Br)c(=O)n(CC)c1-c1ccc(OC)cc1Br [compound 382]
Test A control value (Magnaporthe grisea): H (more than 50% control value)
Test C control value (Alternaia brassicicola): H (more than 50% control value)
Test E control value (Puccinia recondita): H (more than 50% control value)
Test F control value (Phytophthora infestans): H (more than 50% control value)
Test B control value (Botrytis cinerea): H (more than 50% control value)
Test G control value (Plasmopara viticola): H (more than 50% control value)
Test H control value [1]: H (more than 50% control value)
Test D control value [2]: L (50% or less control value)

CCCc1ccc(=O)n(CC)c1-c1c(F)cc(OC)cc1F [compound 383]
Test A control value (Magnaporthe grisea): H (more than 50% control value)
Test C control value (Alternaia brassicicola): H (more than 50% control value)
Test E control value (Puccinia recondita): H (more than 50% control value)
Test F control value (Phytophthora infestans): L (50% or less control value)
Test B control value (Botrytis cinerea): H (more than 50% control value)
Test G control value (Plasmopara viticola): H (more than 50% control value)
Test H control value [1]: H (more than 50% control value)
Test D control value [2]: H (more than 50% control value)

CCCc1cc(Cl)c(=O)n(CC)c1-c1c(F)cc(OC)cc1F [compound 384]
Test A control value (Magnaporthe grisea): H (more than 50% control value)
Test C control value (Alternaia brassicicola): H (more than 50% control value)
Test E control value (Puccinia recondita): H (more than 50% control value)
Test F control value (Phytophthora infestans): L (50% or less control value)
Test B control value (Botrytis cinerea): H (more than 50% control value)
Test G control value (Plasmopara viticola): H (more than 50% control value)
Test H control value [1]: H (more than 50% control value)
Test D control value [2]: H (more than 50% control value)

CCCc1cc(Br)c(=O)n(CC)c1-c1c(F)cc(OC)cc1F [compound 385]
Test A control value (Magnaporthe grisea): H (more than 50% control value)
Test C control value (Alternaia brassicicola): H (more than 50% control value)
Test E control value (Puccinia recondita): H (more than 50% control value)
Test F control value (Phytophthora infestans): L (50% or less control value)
Test B control value (Botrytis cinerea): H (more than 50% control value)
Test G control value (Plasmopara viticola): H (more than 50% control value)
Test H control value [1]: H (more than 50% control value)
Test D control value [2]: H (more than 50% control value)
